Several values for one entry are separate records, joined by “and”; a condition that tells them apart may be missing. Equal entries are not always repeated. Square brackets hold non-standard residues; d marks the D form. Ends that are not written are not given here. Peptide text beside a SMILES is read from it. pGlu = O=C1CC[C@@H](C(=O)O)N1
Experiments:
R. prolixus heart = format: in vivo, Rhodnius prolixus; settings: for EC50: 5th instar semi-intact preparation, 25 ± 2°C, heart rate as % of saline, non-linear regression, N = 10 animals per condition, read-out: EC50, dose-dependent decrease of R. prolixus heart rate (cardiac contractility)
Protocol: R. prolixus were maintained at 28°C under high humidity in a cycle of 12h:12h (L:D). The insects used were 5th instar 2–3 weeks post-ecdysis fed on chicken blood.
Fifth instar R. prolixus were placed ventral surface down on a dish with paraffin wax and dissected under physiological saline. Segments four to seven from the dorsal abdominal cuticle were removed using minuten pins leaving the dorsal vessel exposed. The semi-intact preparation was equilibrated in 20 μl saline for 20 minutes at room temperature (25° ± 2°C), replacing the fluid with fresh saline every five minutes. Heart rate was measured under saline after the final bath, counting the number of contractions in one minute. This counting was replicated three times for each preparation, and the results of the three countings were averaged. After this, the saline was removed and replaced with an equal volume of solution containing a peptide. The heart rate was measured and expressed as % of the control (saline). Ten animals were analyzed for control and for each experiment. The investigator who performed the bioassay was unaware of the peptide structures being tested.
Dose response curves were generated and the effective concentrations at half-maximal response (EC50) values were calculated using a non-linear regression with GraphPad Prism version 6.03. Activities of RhpMS, DrmMS, and analogs were compared to saline, set at 100%, using Single Factor ANOVA to calculate p values; significance was set at p ≤ 0.05.

heart = settings: cardiac contractility / heart rate SAR; cited from earlier work
Source text: (§1) Table 3 DrmMS and analogs: structures and activities. | column: Heart || [6–10]DrmMS was the heart rate active core, yet [4–10]DrmMS was the gut motility active core. […] We believed DrmMS-DrmMS-R1 and DrmMS-DrmMS-R2 interactions would reflect our SAR data. N-terminal truncated and alanyl-substituted analogs (Table 3) were docked to the receptors; additional data are available in Supporting Information. In DrmMS docked to DrmMS-R1 (Fig. 4, Table 4), F7 made multipl ...

gut = gut motility SAR; cited from earlier work
Source text: as §1, with “Gut” for “Heart”

Molecule	EC50 (R. prolixus heart) [nM]	Heart Rate Mean ± S.E.M., percent of saline (R. prolixus heart; peptide at 1 μM, saline = 100%, ten animals per experiment)	Heart activity (heart)	Gut activity (gut)
CC[C@H](C)[C@H](NC(=O)[C@H](CC(=O)O)NC(=O)[C@@H]1CCC(=O)N1)C(=O)N[C@@H](CC(=O)O)C(=O)N[C@@H](Cc1c[nH]cn1)C(=O)N[C@H](C(=O)N[C@@H](Cc1ccccc1)C(=O)N[C@@H](CCSC)C(=O)N[C@@H](CCCNC(=N)N)C(=O)N[C@@H](Cc1ccccc1)C(N)=O)C(C)C [RhpMS] ([pGlu]DIDHVFMRF-NH2)	140	4 % of saline and 4 ± 3 % of saline	–	–
DHVFLRF-NH2 [[4–10]DrmMS, N-terminal truncated DrmMS analog DHVFLRF-NH2]	–	–	agonist	active core
DHVFMRF-NH2 [[4–10]RhpMS]	32	–	–	–
FLRF-NH2 [[7–10]DrmMS, N-terminal truncated DrmMS analog FLRF-NH2]	–	–	inactive	inactive
HVFLRF-NH2 [[5–10]DrmMS, N-terminal truncated DrmMS analog HVFLRF-NH2]	–	–	agonist	antagonist
TDVDHVFARF-NH2 [[A8] DrmMS, alanyl-substituted DrmMS analog […]-NH2]	–	–	agonist	inactive
TDVDHVFLRF-NH2 [DrmMS]	50	–	–	–
VFLRF-NH2 [[6–10]DrmMS, N-terminal truncated DrmMS analog VFLRF-NH2]	–	–	active core	inactive
Y-T(Bpa)VDHVFLRF-NH2 [Y-Bpa2DrmMS]	–	–	agonist	agonist
